Results published in patent publication US9005636B2, “Pharmaceutical composition comprising metformin and rosuvastatin” (BCWorld Pharm Co., Ltd., priority 2009, dated 2015).
One block for each compound: values may come before it.

What was measured:
Type in all cases: cell-based, rat
PGC-1 α = assay: ELISA of PGC-1 α protein expression
L6 muscle cells [1] = assay: Cell morphology (confluence) of L6 muscle cells by microscope; details: 48 hours
Description: (§1) Rat myoblast cell line L6 used herein was obtained from Korean Cell Line Bank. Cells were cultured until the number of cells reached 1×10^6 in T-75 flask (BD Biosciences) using DMEM (Dulbecco's Modified Eagle medium) supplemented with 4.5 g/L of D-glucose, L-glutamine, 0.11 g/L of sodium pyruvate and 10% FBS (Fetal bovine serum, Gibco; Invitrogen Corp., CA, USA). To differentiate cells, the medium with 2% HS (Horse serum, Gibco; Invitrogen Corp., CA, USA) was inoculated and the cells were incubated at 37° C. in 5% CO2 incubator (Forma scientific, Germany). The medium was replaced every 2 days and subculture was conducted every 3 to 4 days. In addition, the myoblast cells, used in this experiment, were differentiated up to 0.3×10^6 in 6 well plate (BD biosciences) before they were used. After the washing step with PBS (Gibco; Invitrogen Corp., CA, USA), the cells were used for ELISA, MTT and PCR analysis.
To compare the morphology of L6 muscle cells on the concentration of metformin, 0.5×10^5 muscle cells were seeded onto each well in 6 well plate (Falcon) and incubated at 37° C. in 5% CO2 incubator for 24 hours. 20 μM of rosuvastatin was treated and 0, 1, 10, 20, and 100 μM of metformin was treated, respectively. After 48 hours, all of them were observed using a microscope (IS-70, Olympus),

L6 muscle cells [2] = assay: MTT assay, viability of L6 muscle cells; details: 20 μM of rosuvastatin only, 48 hours
Description: MTT assay was carried out to determine the viability of L6 muscle cells. 1×10^4 cells were seeded onto each well in 96 well plate and incubated at 37° C. in 5% CO2 incubator for 24 hours.
20 μM of rosuvastatin was treated and 0, 1, 10, 20 and 100 μM of metformin was treated, respectively. […] Lastly, the optical density of formazan was measured at 570 nm using an ELISA Reader.

Atrogin-1 mRNA = assay: RT-PCR of Atrogin-1 mRNA in L6 muscle cells; details: 20 μM of rosuvastatin
Description: as §1
To measure the mRNA level of Atrogen-1 in muscle cells depending on concentration of metformin, the cells were homogenized in 500 μl of Trizol (Invitrogen) and 3 μg of total RNA was collected using a cell scraper. […]

Atrogin-1 = assay: ELISA of Atrogin-1 protein expression; details: as the concentration of rosuvastatin was increased
Description: as §1, with “analysis. […] Non-bound material was removed after washing four times with phosphate-buffered saline containing 0.2% tween 20 (PBS-T). The plate was washed 4 times with PBS buffer containing 0.2% Tween 20; and 200 μl of blocking solution (GenDEPOT) containing 1% BSA (Bovine Serum Albumin) with PBS was seeded onto each well and incubated for 2 hours at 4° C. […] Lastly, the absorbance was measured at 450 nm using an ELISA reader.” for “analysis.”

SMILES: CN(C)C(=N)N=C(N)N [metformin]
protein level of PGC-1 α compared to negative control (PGC-1 α; 0.1 μM of metformin): did not show a significant difference | protein level of PGC-1 α (PGC-1 α; more than 1 μM of metformin): increase | confluence of L6 cells (L6 muscle cells [1]; 20 μM of rosuvastatin plus 1, 10, 20, 100 μM of metformin): increased as the concentration of metformin increased

confluence of L6 cells compared to the group without treatment (L6 muscle cells [1]; 20 μM of rosuvastatin): decreased significantly
SMILES: CC(C)c1nc(N(C)S(C)(=O)=O)nc(-c2ccc(F)cc2)c1/C=C/[C@@H](O)C[C@@H](O)CC(=O)O [rosuvastatin]
viability of the cells (MTT) (L6 muscle cells [2]): significant decrease | mRNA expression of Atrogin-1 compared to negative control (Atrogin-1 mRNA): increased | protein expression of Atrogin-1 (Atrogin-1): increased
